The NIST ThermoML archive (doi:10.1021/acs.jced.8b00524)
± gives the expanded uncertainty stated by the source.

Assays:
[1] = 100 kPa, Liquid; for viscosity: Concentric cylinders viscometry; for mass density: Vibrating tube method
[2] = xn = mol fraction of the nth substance listed; details: 100 kPa, Liquid; for viscosity: Concentric cylinders viscometry; for mass density: Vibrating tube method

CCCCOC(C)=O [butyl ethanoate]
[1]
Details	mass density [kg/m3]	viscosity [mPa·s]
293.15 K	881.1 ± 10	0.732 ± 0.037
298.15 K	876 ± 10	0.677 ± 0.034
303.15 K	870.9 ± 10	0.628 ± 0.032
308.15 K	865.7 ± 10	0.585 ± 0.03
313.15 K	860.5 ± 10	0.546 ± 0.028
318.15 K	855.3 ± 10	0.512 ± 0.026
323.15 K	850.1 ± 10	0.485 ± 0.025

CCCCOC(C)=O [butyl ethanoate] + CCCCCCCCCCO
[2], x1 = 1
Details	mass density [kg/m3]	viscosity [mPa·s]
293.15 K	881.1 ± 10	0.732 ± 0.037
298.15 K	876 ± 10	0.677 ± 0.034
303.15 K	870.9 ± 10	0.628 ± 0.032
308.15 K	865.7 ± 10	0.585 ± 0.03
313.15 K	860.5 ± 10	0.546 ± 0.028
318.15 K	855.3 ± 10	0.512 ± 0.026
323.15 K	850.1 ± 10	0.485 ± 0.025

CCCCOC(C)=O [butyl ethanoate] + CCCCCCCCCO
[2], x1 = 1
Details	mass density [kg/m3]	viscosity [mPa·s]
293.15 K	881.1 ± 10	0.732 ± 0.037
298.15 K	876 ± 10	0.677 ± 0.034
303.15 K	870.9 ± 10	0.628 ± 0.032
308.15 K	865.7 ± 10	0.585 ± 0.03
313.15 K	860.5 ± 10	0.546 ± 0.028
318.15 K	855.3 ± 10	0.512 ± 0.026
323.15 K	850.1 ± 10	0.485 ± 0.025

CCCCOC(C)=O [butyl ethanoate] + CCCCCCCO
[2], x1 = 1
Details	mass density [kg/m3]	viscosity [mPa·s]
293.15 K	881.1 ± 10	0.732 ± 0.037
298.15 K	876 ± 10	0.677 ± 0.034
303.15 K	870.9 ± 10	0.628 ± 0.032
308.15 K	865.7 ± 10	0.585 ± 0.03
313.15 K	860.5 ± 10	0.546 ± 0.028
318.15 K	855.3 ± 10	0.512 ± 0.026
323.15 K	850.1 ± 10	0.485 ± 0.025

CCCCCCCCCCO [decan-1-ol]
[1]
Details	mass density [kg/m3]	viscosity [mPa·s]
293.15 K	829.5 ± 10	14.42 ± 0.72
298.15 K	826.1 ± 10	11.8 ± 0.59
303.15 K	822.7 ± 10	9.76 ± 0.49
308.15 K	819.3 ± 10	8.14 ± 0.41
313.15 K	815.8 ± 10	6.84 ± 0.34
318.15 K	812.4 ± 10	5.8 ± 0.29
323.15 K	808.9 ± 10	4.96 ± 0.25

CCCCCCCO [heptan-1-ol]
[1]
Details	mass density [kg/m3]	viscosity [mPa·s]
293.15 K	822.2 ± 10	7.03 ± 0.35
298.15 K	818.7 ± 10	5.92 ± 0.3
303.15 K	815.2 ± 10	5.03 ± 0.25
308.15 K	811.6 ± 10	4.3 ± 0.22
313.15 K	808 ± 10	3.71 ± 0.19
318.15 K	804.4 ± 10	3.21 ± 0.16
323.15 K	800.7 ± 10	2.79 ± 0.14

CCCCCCO [hexan-1-ol]
[1]
Details	mass density [kg/m3]	viscosity [mPa·s]
293.15 K	818.7 ± 10	5.37 ± 0.27
298.15 K	815.1 ± 10	4.58 ± 0.23
303.15 K	811.5 ± 10	3.94 ± 0.2
308.15 K	807.9 ± 10	3.4 ± 0.17
313.15 K	804.2 ± 10	2.95 ± 0.15
318.15 K	800.6 ± 10	2.58 ± 0.13
323.15 K	796.8 ± 10	2.26 ± 0.11

CCCCCCO [hexan-1-ol] + CCCCOC(C)=O
[2], x2 = 0
Details	mass density [kg/m3]	viscosity [mPa·s]
293.15 K	818.7 ± 10	5.37 ± 0.27
298.15 K	815.1 ± 10	4.58 ± 0.23
303.15 K	811.5 ± 10	3.94 ± 0.2
308.15 K	807.9 ± 10	3.4 ± 0.17
313.15 K	804.2 ± 10	2.95 ± 0.15
318.15 K	800.6 ± 10	2.58 ± 0.13
323.15 K	796.8 ± 10	2.26 ± 0.11

CCCCCCCCCO [nonan-1-ol]
[1]
Details	mass density [kg/m3]	viscosity [mPa·s]
293.15 K	827.5 ± 10	11.41 ± 0.57
298.15 K	824 ± 10	9.43 ± 0.47
303.15 K	820.5 ± 10	7.86 ± 0.39
308.15 K	817.1 ± 10	6.61 ± 0.33
313.15 K	813.6 ± 10	5.59 ± 0.28
318.15 K	810.1 ± 10	4.78 ± 0.24
323.15 K	806.5 ± 10	4.1 ± 0.21

CCCCCCCCO [octan-1-ol]
[1]
Details	mass density [kg/m3]	viscosity [mPa·s]
293.15 K	824.9 ± 10	9.13 ± 0.46
298.15 K	821.4 ± 10	7.62 ± 0.38
303.15 K	817.9 ± 10	6.41 ± 0.32
308.15 K	814.4 ± 10	5.43 ± 0.27
313.15 K	810.9 ± 10	4.63 ± 0.23
318.15 K	807.3 ± 10	3.98 ± 0.2
323.15 K	803.7 ± 10	3.44 ± 0.17

CCCCCCCCO [octan-1-ol] + CCCCOC(C)=O
[2], x2 = 0
Details	mass density [kg/m3]	viscosity [mPa·s]
293.15 K	824.9 ± 10	9.13 ± 0.46
298.15 K	821.4 ± 10	7.62 ± 0.38
303.15 K	817.9 ± 10	6.41 ± 0.32
308.15 K	814.4 ± 10	5.43 ± 0.27
313.15 K	810.9 ± 10	4.63 ± 0.23
318.15 K	807.3 ± 10	3.98 ± 0.2
323.15 K	803.7 ± 10	3.44 ± 0.17
